System: Nematospiroides dubius
Test: Oral activity against experimental infections of Nematospiroides dubius in the mouse (worm numbers of treated vs untreated control animals)
Format: in vivo
Conditions: calculated from worm numbers of treated and control animals; for inhibition in vivo at 200 mg/kg / inhibition in vivo at 100 mg/kg: Heligmosomoides polygyrus, po
Procedure: The oral activity of the following compounds, against experimental infections of Nematospiroides dubius in the mouse, was calculated from a comparison of the worm numbers of treated and control (untreated) animals.

Molecule | inhibition in vivo at 200 mg/kg (Dose 200 mg/kg (p.o.)) [%] | also measured
CSC(=Nc1cccc(C2CN3CCSC3=N2)c1)Nc1ccccc1 (stereo not shown) [Example 13] | 99 | –
CSC(=Nc1cccc(C2CN3CCSC3=N2)c1)Nc1ccc(F)cc1 (stereo not shown) [Example 14, S-Methyl-N-[4-fluorophenyl]-N'-[3-(6-{2,3,5,6-tetra-hydroimidazo [2,1-b]thiazolyl})phenyl]isothiourea] | 100 | –
CSC(=Nc1cccc(C2CN3CCSC3=N2)c1)Nc1cccc(F)c1 (stereo not shown) [Example 15, S-Methyl-N-[3-fluorophenyl]-N'-[3-(6-{2,3,5,6-tetra-hydroimidazo[2,1-b]thiazolyl})phenyl]isothiourea] | 100 | inhibition in vivo at 100 mg/kg (Dose 100 mg/kg (p.o.)): 100%
CSC(=Nc1cccc(C2CN3CCSC3=N2)c1)Nc1ccc(Cl)cc1 (stereo not shown) [Example 17, S-Methyl-N-[4-chlorophenyl]-N'-[3-(6-{2,3,5,6-tetra-hydroimidazo[2,1-b]thiazolyl})phenyl]isothiourea] | 88 | –
CSC(=Nc1cccc(C2CN3CCSC3=N2)c1)Nc1ccc(C)cc1 (stereo not shown) [Example 19, S-Methyl-N-[4-methylphe_nyl]-N'-[3-(6-{2,3,5,6-tetra-hydroimidazo[2,1-b]thiazolyl})phenyl]isothiourea] | 0 | –
CSC(=Nc1cccc(C2CN3CCSC3=N2)c1)Nc1cccc(Cl)c1 (stereo not shown) [Example 20] | 100 | inhibition in vivo at 100 mg/kg (Dose 100 mg/kg (p.o.)): 87%
CCSC(=Nc1cccc(C2CN3CCSC3=N2)c1)Nc1ccccc1 (stereo not shown) [Example 22, S-Ethyl-N-phenyl-N'-[3-(6{2,3,5,6-tetrahydroimidazo-[2,1-b]thiazolyl})phenyl]isothiourea] | 92 | –
CSC(=Nc1cccc(C2CN3CCSC3=N2)c1)Nc1ccc(C)c(C)c1 (stereo not shown) [Example 56] | 0 | –
CSC(=Nc1cccc(C2CN3CCSC3=N2)c1)Nc1cccc(C)c1 (stereo not shown) [Example 57] | 100 | inhibition in vivo at 100 mg/kg (Dose 100 mg/kg (p.o.)): 40%
CSC(=Nc1cccc(C2CN3CCSC3=N2)c1)Nc1cccc([N+](=O)[O-])c1 (stereo not shown) [Example 58] | 95 | inhibition in vivo at 100 mg/kg (Dose 100 mg/kg (p.o.)): 95%
CSC(=Nc1cccc(C2CN3CCSC3=N2)c1)NCc1ccccc1 (stereo not shown) [Example 75] | 54 | –
CSC(=Nc1cccc(C2CN3CCSC3=N2)c1)NC1CCCCC1 (stereo not shown) [Example 76] | 15 | –
COc1ccc(NC(=Nc2cccc(C3CN4CCSC4=N3)c2)SC)cc1 (stereo not shown) [p-C6H4OCH3] | 59 | –
S-Methyl-N-[3,4-dichlorophenyl]-N'-[3-(6{2,3,5,6-tetra- hydroimidazo[2,1-b]thiazolyl}) phenyl]isothiourea [Example 18] | – | Activity % (Dose 200 mg/kg (p.o.)): 34%
S-Methyl-N-[4-acetylphenyl]-N'-[3-(6-{2,3,5,6-tetra- hydroimidazo-[2,1-b]thiazolyl})phenyl]isothiourea [Example 25] | – | Activity % (Dose 100 mg/kg (p.o.)): 93%; Activity % (Dose 200 mg/kg (p.o.)): 100%
S-Methyl-N-[4-cyanophenyl]-N'-[3-(6-{2,3.5,6-tetra- hydroimidazo[2,1-b]thiazolyl})phenyl]isothiourea [Example 24] | – | Activity % (Dose 100 mg/kg (p.o.)): 99%; Activity % (Dose 200 mg/kg (p.o.)): 100%
S-Methyl-N-[4-nitrophenyl]-N'-[3-(6-{2,3,5,6-tetra- hydroimidaza[2,1-b]thiazolyl})phenyl]isothiourea [Example 16] | – | Activity % (Dose 50 mg/kg (p.o.)): 95%; Activity % (Dose 100 mg/kg (p.o.)): 100%; Activity % (Dose 200 mg/kg (p.o.)): 100%

— EP0076622A1, “Anthelmintics” (BEECHAM GROUP PLC, priority 1981, dated 1983)
